The results in this text go back to ChEMBL document CHEMBL1130605, “Conformationally restricted carbamate inhibitors of horse serum butyrylcholinesterase” (Bioorg Med Chem Lett, 1998).

Assay [1] has as its target T1, Butyrylcholinesterase (Equus caballus, UniProt Q9N1N9). Nature of the assay: Tested for kinetic data for the horse serum Butyrylcholinesterase-Catalyzed Hydrolysis of Butyrylthiocholine; 10e-3/M. sec.
Assay [2] addresses T1, Butyrylcholinesterase. Description: Compound was evaluated for irreversible inhibition of Horse serum Butyrylcholinesterase.
Assay [3] has as its target Butyrylcholinesterase (Equus caballus) (UniProt Q9N1N9).
Assay [4] has as its target T1, Butyrylcholinesterase. Nature of the assay: Compound was evaluated for its inhibitory concentration against Horse serum Butyrylcholinesterase.

Structures are written as SMILES.

On to `CCCCNC(=O)OC1C2CC3CC(C2)CC1C3` (centres undefined), for which the figures for the Ki on Butyrylcholinesterase [1] and on Butyrylcholinesterase [2] were 1.8 10e3* M-1 s-1 and 800 nM, respectively. Moreover, the k2 in assay [3] was 1.4 10e-3 s-1.

On to `CCCCNC(=O)OC12CC3CC(CC(C3)C1)C2`, for which the results for the Ki at Butyrylcholinesterase [1] and at Butyrylcholinesterase [2] were 1.9 10e3* M-1 s-1 and 800 nM, respectively. Moreover, the k2 in assay [3] is 1.5 10e-3 s-1.

For the molecule `CCCCNC(=O)OC1C[C@H]2CCC1C2` (stereo in doubt; 1) [listing 1 of 2 here], the values for the Ki at Butyrylcholinesterase [1] and at Butyrylcholinesterase [2] were 110 10e3* M-1 s-1 and 20 nM, respectively.

For `CCCCNC(=O)OC1C[C@H]2CCC1C2` (stereo in doubt; 1) [listing 2 of 2 here], the k2 in assay [3] is 2.2 10e-3 s-1.

For the molecule `CCCCNC(=O)OC1C[C@H]2CCC1C2` (stereo in doubt; 2) [listing 1 of 2 here], the Ki at Butyrylcholinesterase [1] was 2.2 10e3* M-1 s-1; at Butyrylcholinesterase [2] it was 420 nM.

Regarding `CCCCNC(=O)OC1C[C@H]2CCC1C2` (stereo in doubt; 2) [listing 2 of 2 here], in assay [3], the k2 is 0.92 10e-3 s-1.

Molecule `CC[N+](C)(C)c1cccc(O)c1` [EDROPHONIUM BROMIDE] gave a Ki at Butyrylcholinesterase [2] of 340000 nM.

In the case of `CNC(=O)Oc1ccc2c(c1)[C@]1(C)CCN(C)[C@@H]1N2C` [PHYSOSTIGMINE], 16 nM corresponded to half-maximal inhibition against Butyrylcholinesterase [4] (IC50).
